Laboratory results published in patent US6737383B1, “Herbicidal oxadiazolidines” (priority 1999, dated 2004).

What was measured:
soybean = test: Test B pre/postemergence soybean; format: in vivo, Glycine max
Summary of the method: (§1)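 Herbicidal effect was estimated by eye on a ten-point control scale after plants spent twelve to sixteen days in a greenhouse following soil or foliar treatment. Foliar sprays targeted plants at one to four leaves; all doses were formulated in a non-phytotoxic solvent with surfactant.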

velvetleaf = test: Test B pre/postemergence velvetleaf; format: in vivo, Abutilon theophrasti
Summary of the method: as §1

sugar beet = test: Test B pre/postemergence sugar beet; format: in vivo, Beta vulgaris
Summary of the method: as §1

rice = test: Test B flood test rice; format: in vivo, Oryza sativa
Summary of the method: (§2)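 Read-out is a visual response score from 0 (no effect) to 10 (complete control), assigned by comparison with untreated controls. Treatment was applied at the 2-leaf stage, and plants stayed in the greenhouse for twelve to sixteen days before scoring.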

bedstraw = test: Test B pre/postemergence bedstraw; format: in vivo, Galium aparine
Summary of the method: as §1

wild oat = test: Test B pre/postemergence wild oat; format: in vivo, Avena fatua
Summary of the method: as §1

cocklebur = test: Test B pre/postemergence cocklebur; format: in vivo, Xanthium strumarium
Summary of the method: as §1

bamyardgrass = test: Test B flood test barnyardgrass; format: in vivo, Echinochloa crus-galli
Summary of the method: as §2

corn = test: Test B pre/postemergence corn; format: in vivo, Zea mays
Summary of the method: as §1

surinam grass = test: Test B pre/postemergence surinam grass; format: in vivo, Brachiaria decumbens
Summary of the method: as §1

rape = test: Test B pre/postemergence rape; format: in vivo, Brassica napus
Summary of the method: as §1

duck salad = test: Test B flood test duck salad; format: in vivo, Heteranthera limosa
Summary of the method: as §2

morningglory = test: Test B pre/postemergence morningglory; format: in vivo, Ipomoea hederacea
Summary of the method: as §1

crabgrass = test: Test B pre/postemergence crabgrass; format: in vivo, Digitaria sanguinalis
Summary of the method: as §1

pigweed = test: Test B pre/postemergence pigweed; format: in vivo, Amaranthus retroflexus
Summary of the method: as §1

smallflower flatsedge = test: Test B flood test smallflower flatsedge; format: in vivo, Cyperus difformis
Summary of the method: as §2

[1] = Postemergence, Rate 62 g/ha, scale 0 to 10, 0 is no effect, 10 is complete control
[2] = Postemergence, Rate 250 g/ha, scale 0 to 10, 0 no effect, 10 complete control
[3] = Preemergence, Rate 62 g/ha, scale 0 to 10, 0 is no effect, 10 is complete control
[4] = Preemergence, Rate 125 g/ha, scale 0 to 10 (0 no effect, 10 complete control)
[5] = Preemergence, Rate 250 g/ha, scale of 0 to 10 where 0 is no effect and 10 is complete control
[6] = Preemergence, Rate 500 g/ha, scale 0 (no effect) to 10 (complete control)
[7] = Rate 125 g/ha, Postemergence, scale 0 to 10, 0 no effect, 10 complete control
[8] = Rate 125 g/ha, Postemergence section (flood test species), scale 0 to 10, 0 no effect, 10 complete control
[9] = Rate 500 g/ha, Postemergence section of Table B, 0 to 10 scale (0 no effect, 10 complete control)
[10] = flood test, listed under Postemergence, Rate 250 g/ha, scale 0 to 10, 0 no effect, 10 complete control
[11] = Rate 500 g/ha, Postemergence, 0 to 10 scale (0 no effect, 10 complete control)

Question: For `CCN(CC)C(=O)n1oc(=O)n(-c2cc(Cl)cc(Cl)c2)c1=O` [Compound 11], which “Soybean plant response rating” value (soybean; [1]) is on record?
Answer: 0

Question: And the “Soybean plant response rating” value (soybean; [2])?
Answer: 0

Question: What about the “Plant response rating, Soybean” value (soybean; [3]) of the same compound?
Answer: 0

Question: And the “Plant response rating, Soybean” value (soybean; [4])?
Answer: 0

Question: What about the “Plant response rating, Soybean” value (soybean; [5]) of the same compound?
Answer: 0

Question: What about the “Soybean plant response rating” value (soybean; [6]) of the same compound?
Answer: 0

Question: What about the “Soybean plant response rating” value (soybean; [7]) of the same compound?
Answer: 0

Question: What about the “Velvetleaf plant response rating” value (velvetleaf; [1]) of the same compound?
Answer: 0

Question: And the “Velvetleaf plant response rating” value (velvetleaf; [2])?
Answer: 0

Question: And the “Plant response rating, Velvetleaf” value (velvetleaf; [3])?
Answer: 0

Question: And the “Plant response rating, Velvetleaf” value (velvetleaf; [4])?
Answer: 0

Question: And the “Plant response rating, Velvetleaf” value (velvetleaf; [5])?
Answer: 0

Question: And the “Velvetleaf plant response rating” value (velvetleaf; [6])?
Answer: 0

Question: And the “Velvetleaf plant response rating” value (velvetleaf; [7])?
Answer: 0

Question: And the “Sugarbeets plant response rating” value (sugar beet; [1])?
Answer: 0

Question: What about the “Sugarbeets plant response rating” value (sugar beet; [2]) of the same compound?
Answer: 0

Question: And the “Plant response rating, Sugarbeets” value (sugar beet; [3])?
Answer: 0

Question: And the “Plant response rating, Sugarbeets” value (sugar beet; [4])?
Answer: 0

Question: What about the “Plant response rating, Sugarbeets” value (sugar beet; [5]) of the same compound?
Answer: 0

Question: And the “Sugarbeets plant response rating” value (sugar beet; [6])?
Answer: 0

Question: What about the “Sugarbeets plant response rating” value (sugar beet; [7]) of the same compound?
Answer: 0

Question: And the “Rice plant response rating” value (rice; [1])?
Answer: 0

Question: And the “Rice plant response rating” value (rice; [8])?
Answer: 0

Question: What about the “Rice plant response rating” value (rice; [9]) of the same compound?
Answer: 0

Question: And the “Rice plant response rating” value (rice; [10])?
Answer: 0

Question: And the “Bedstraw plant response rating” value (bedstraw; [1])?
Answer: 0

Question: And the “Bedstraw plant response rating” value (bedstraw; [2])?
Answer: 0

Question: And the “Plant response rating, Bedstraw” value (bedstraw; [3])?
Answer: 0

Question: And the “Plant response rating, Bedstraw” value (bedstraw; [4])?
Answer: 0

Question: And the “Plant response rating, Bedstraw” value (bedstraw; [5])?
Answer: 0

Question: And the “Bedstraw plant response rating” value (bedstraw; [6])?
Answer: 0

Question: What about the “Bedstraw plant response rating” value (bedstraw; [7]) of the same compound?
Answer: 0

Question: What about the “Bedstraw plant response rating” value (bedstraw; [11]) of the same compound?
Answer: 0

Question: What about the “Wild oats plant response rating” value (wild oat; [1]) of the same compound?
Answer: 0

Question: What about the “Wild oats plant response rating” value (wild oat; [2]) of the same compound?
Answer: 0

Question: And the “Plant response rating, Wild oats” value (wild oat; [4])?
Answer: 0

Question: What about the “Plant response rating, Wild oats” value (wild oat; [5]) of the same compound?
Answer: 0

Question: What about the “Wild oats plant response rating” value (wild oat; [6]) of the same compound?
Answer: 0

Question: And the “Wild oats plant response rating” value (wild oat; [7])?
Answer: 0

Question: And the “Cocklebur plant response rating” value (cocklebur; [1])?
Answer: 0

Question: And the “Cocklebur plant response rating” value (cocklebur; [2])?
Answer: 0

Question: What about the “Plant response rating, Cocklebur” value (cocklebur; [3]) of the same compound?
Answer: 0

Question: What about the “Plant response rating, Cocklebur” value (cocklebur; [4]) of the same compound?
Answer: 0

Question: What about the “Plant response rating, Cocklebur” value (cocklebur; [5]) of the same compound?
Answer: 0

Question: What about the “Cocklebur plant response rating” value (cocklebur; [6]) of the same compound?
Answer: 0

Question: What about the “Cocklebur plant response rating” value (cocklebur; [7]) of the same compound?
Answer: 0

Question: What about the “Cocklebur plant response rating” value (cocklebur; [11]) of the same compound?
Answer: 0

Question: And the “Barnyardgrass plant response rating” value (bamyardgrass; [1])?
Answer: 0

Question: What about the “Barnyardgrass plant response rating” value (bamyardgrass; [8]) of the same compound?
Answer: 0

Question: And the “Barnyardgrass plant response rating” value (bamyardgrass; [9])?
Answer: 0

Question: And the “Barnyardgrass plant response rating” value (bamyardgrass; [10])?
Answer: 0

Question: What about the “Corn plant response rating” value (corn; [1]) of the same compound?
Answer: 0

Question: And the “Corn plant response rating” value (corn; [2])?
Answer: 0

Question: And the “Plant response rating, Corn” value (corn; [3])?
Answer: 0

Question: And the “Plant response rating, Corn” value (corn; [4])?
Answer: 0

Question: What about the “Plant response rating, Corn” value (corn; [5]) of the same compound?
Answer: 0

Question: And the “Corn plant response rating” value (corn; [6])?
Answer: 0

Question: What about the “Corn plant response rating” value (corn; [7]) of the same compound?
Answer: 0

Question: And the “Corn plant response rating” value (corn; [11])?
Answer: 0

Question: And the “B. signalgrass plant response rating” value (surinam grass; [1])?
Answer: 0

Question: What about the “B. signalgrass plant response rating” value (surinam grass; [2]) of the same compound?
Answer: 0

Question: And the “Plant response rating, B. signalgrass” value (surinam grass; [3])?
Answer: 0

Question: And the “Plant response rating, B. signalgrass” value (surinam grass; [4])?
Answer: 0

Question: What about the “Plant response rating, B. signalgrass” value (surinam grass; [5]) of the same compound?
Answer: 0

Question: What about the “B. signalgrass plant response rating” value (surinam grass; [6]) of the same compound?
Answer: 0

Question: And the “B. signalgrass plant response rating” value (surinam grass; [7])?
Answer: 0

Question: What about the “B. signalgrass plant response rating” value (surinam grass; [11]) of the same compound?
Answer: 0

Question: And the “Rape plant response rating” value (rape; [1])?
Answer: 0

Question: What about the “Rape plant response rating” value (rape; [2]) of the same compound?
Answer: 0

Question: And the “Plant response rating, Rape” value (rape; [3])?
Answer: 0

Question: And the “Plant response rating, Rape” value (rape; [4])?
Answer: 0

Question: And the “Plant response rating, Rape” value (rape; [5])?
Answer: 0

Question: And the “Rape plant response rating” value (rape; [6])?
Answer: 0

Question: What about the “Rape plant response rating” value (rape; [7]) of the same compound?
Answer: 0

Question: What about the “Rape plant response rating” value (rape; [11]) of the same compound?
Answer: 0

Question: And the “Ducksalad plant response rating” value (duck salad; [1])?
Answer: 0

Question: What about the “Ducksalad plant response rating” value (duck salad; [8]) of the same compound?
Answer: 0

Question: And the “Ducksalad plant response rating” value (duck salad; [9])?
Answer: 0

Question: What about the “Ducksalad plant response rating” value (duck salad; [10]) of the same compound?
Answer: 0

Question: What about the “Morningglory plant response rating” value (morningglory; [1]) of the same compound?
Answer: 0

Question: And the “Morningglory plant response rating” value (morningglory; [2])?
Answer: 0

Question: And the “Plant response rating, Morningglory” value (morningglory; [3])?
Answer: 0

Question: And the “Plant response rating, Morningglory” value (morningglory; [4])?
Answer: 0

Question: And the “Plant response rating, Morningglory” value (morningglory; [5])?
Answer: 0

Question: And the “Morningglory plant response rating” value (morningglory; [6])?
Answer: 0

Question: What about the “Morningglory plant response rating” value (morningglory; [7]) of the same compound?
Answer: 0

Question: What about the “Morningglory plant response rating” value (morningglory; [11]) of the same compound?
Answer: 0

Question: And the “Crabgrass plant response rating” value (crabgrass; [1])?
Answer: 0

Question: And the “Crabgrass plant response rating” value (crabgrass; [2])?
Answer: 0

Question: And the “Plant response rating, Crabgrass” value (crabgrass; [3])?
Answer: 0

Question: What about the “Plant response rating, Crabgrass” value (crabgrass; [4]) of the same compound?
Answer: 0

Question: And the “Plant response rating, Crabgrass” value (crabgrass; [5])?
Answer: 0

Question: What about the “Crabgrass plant response rating” value (crabgrass; [6]) of the same compound?
Answer: 8

Question: What about the “Crabgrass plant response rating” value (crabgrass; [7]) of the same compound?
Answer: 0

Question: And the “Crabgrass plant response rating” value (crabgrass; [11])?
Answer: 0

Question: And the “Redroot pigweed plant response rating” value (pigweed; [1])?
Answer: 0

Question: What about the “Redroot pigweed plant response rating” value (pigweed; [2]) of the same compound?
Answer: 0

Question: And the “Plant response rating, Redroot pigweed” value (pigweed; [3])?
Answer: 0

Question: And the “Plant response rating, Redroot pigweed” value (pigweed; [4])?
Answer: 0

Question: What about the “Plant response rating, Redroot pigweed” value (pigweed; [5]) of the same compound?
Answer: 0

Question: What about the “Redroot pigweed plant response rating” value (pigweed; [6]) of the same compound?
Answer: 0

Question: And the “Redroot pigweed plant response rating” value (pigweed; [7])?
Answer: 0

Question: And the “Redroot pigweed plant response rating” value (pigweed; [11])?
Answer: 0

Question: What about the “S. Flatsedge plant response rating” value (smallflower flatsedge; [1]) of the same compound?
Answer: 0

Question: What about the “S. Flatsedge plant response rating” value (smallflower flatsedge; [8]) of the same compound?
Answer: 0

Question: What about the “S. Flatsedge plant response rating” value (smallflower flatsedge; [10]) of the same compound?
Answer: 0
